The text below walks through data of patent US20060147558A1, “Remedies” (priority 2000, published 2006).

Assay [1] relates to HGF production of MRC-5 cells. The assay is described as follows: enhancing activity for HGF production: MRC-5 cells cultured 24 h with sample, HGF in medium by ELISA. Format: cell-based, human. As to conditions: for Amount of HGF Produced: control = 100%. Here is the method: (1) The enhancing activity for HGF production of each of the bamboo blade extract (sample (1)) prepared in item (1) of Example 1, and the lower layer fraction (sample (2)) and the upper layer fraction (sample (3)) prepared in item (2) of Example 1 was assayed. Five-hundred microliters each of MRC-5 cells (CCL 171: manufactured by DAINIPPON PHARMACEUTICAL CO., LTD., code. 02-021) suspended in a DME medium containing 10% fetal bovine serum so as to have a concentration of 1×10^5 cells/ml were added into each well of a 48-well cell culture plate. The cells were cultured at 37° C. for 24 hours in the presence of 5% CO2, and then the medium was exchanged for a DME medium containing 1% fetal bovine serum. Thereafter, the sample was added to the medium, and the cells were further cultured for 24 hours. The medium was then collected, and by using Quantikine Human Hepatocyte Growth Factor (HGF) ELISA Kit (manufactured by Funakoshi, Code. RS-0641-00), the amount of HGF in the medium was determined. The amount of HGF produced was expressed, assuming that the value of the negative control is 100%. […] As the negative control, distilled water was added in the same volume as that of the sample. The amount of HGF produced was expressed, assuming that the value of the negative control is 100%. The results for the sample (1) are shown in Table 1, and the results for the sample (2) and the sample (3) are shown in Table 2. Each experiment was carried out twice, and its average value was taken. […] From the above, it was shown that the bamboo blade extract has an enhancing activity for HGF production.
Background: ELISA stands for enzyme-linked immunosorbent assay.

In assay [2] the test system is NGF production of L-M cells. The assay can be described thus: enhancing activity for NGF production: L-M cells cultured 20 h with sample, NGF in medium by enzyme immunoassay. The format is cell-based, murine. The conditions noted are these: for Amount of NGF Produced: control = 100%; for enhancing activity for NGF production: result in words, no value given. As to the method: L-M cells (ATCC CCL-1.2) from murine fibroblasts were suspended in an M199 medium (manufactured by ICN) containing 0.5% bactopeptone (manufactured by Gibco) so as to have a concentration of 1.5×10^5 cells/ml. The suspension was put in a 96 well plate in an amount of 0.1 ml each well, and the cells were aseptically cultured. After culturing the cells for 3 days, the medium was removed therefrom, and exchanged with an M199 medium containing 0.5% bovine serum albumin (manufactured by Sigma). […] After the termination of the culture, the concentration of the nerve growth factor in the culture medium was assayed by an enzyme immunoassay method (NGF Emax Immuno Assay System, manufactured by Promega). The enhancement for NGF production was expressed, assuming that the NGF concentration in the cell culture medium with no addition of the sample is 100%. The experiment was carried out twice, and an average value was taken. As a result, the yellow pigment from Carthamus tinctorius enhanced NGF production of the L-M cells in a concentration dependent manner.

Take `O=C(/C=C/c1ccc(O)c(O)c1)O[C@@H]1CC(O)(C(=O)O)C[C@@H](OC(=O)/C=C/c2ccc(O)c(O)c2)C1O` (stereo partly drawn) [3,5-Dicaffeoyl-quinic Acid, 3,5-dicaffeoyl-quinic acid]: the figures for the “Amount of HGF Produced” value in assay [1] (1 μM), in assay [1] (10 μM) and in assay [1] (100 μM) were 142%, 206% and 290%, respectively.
With `CC1(C)Oc2ccc3ccc(=O)oc3c2C(O)C1OC1OC(CO)C(O)C(O)C1O` [10 (62.2), 3′-O-β-D-glucopyranoyl khellactone], in assay [2] (2.0 mg/ml), the “Amount of NGF Produced” value is given as 565.5%.
Turning to `CC(C)=CCc1c(O[C@@H]2O[C@H](CO)[C@@H](O)[C@H](O)[C@H]2O)ccc2ccc(=O)oc12` [13-2 (8.7), 7-O-β-D-glucopyranosyloxy-8-prenylcoumarin], the “Amount of NGF Produced” value in assay [2] (1.0 mg/ml) came to 792.1%.
Turning to `COC(=O)/C=C/c1ccc(O)c(O)c1` [18-3 (10.6), caffeic acid methyl ester], the “Amount of NGF Produced” value in assay [2] (0.25 mg/ml) is 3039.6%.
In the case of `COc1ccc(C(=O)O)c2c1CC(O)C(C)(C)O2` (stereo not drawn) [18-4 (10.9), 8-carboxyl-3-hydroxy-5-methoxyl-2-dimethylchroman], in assay [2] (0.0375 mg/ml), the “Amount of NGF Produced” value is recorded as 2510.4%.
Take `CC(C)=CCc1cc2ccc(=O)oc2cc1O[C@@H]1O[C@H](CO)[C@@H](O)[C@H](O)[C@H]1O` [19-, 20-5 (16.4), 7-β-D-glucopyranosyloxy-6-prenylcoumarin]: the “Amount of NGF Produced” value in assay [2] (1.0 mg/ml) was 487.9%.
On to `C/C=C(/C)C(=O)OC1c2c(ccc3ccc(=O)oc23)OC(C)(C)C1O[C@@H]1O[C@H](CO[C@@H]2O[C@H](CO)[C@@H](O)[C@H](O)[C@H]2O)[C@@H](O)[C@H](O)[C@H]1O` (stereo partly drawn) [19-, 20-6 (18.8), 4′-O-angeloyl-3′-O-[6-O-(β-D-glucopyranosyl)-β-D-glucopyranosyl]-khellactone], for which the “Amount of NGF Produced” value in assay [2] (1.0 mg/ml) is 337.7%.
For the molecule `CCOC(=O)/C=C/c1ccc(O)c(O)c1` [28 (91.4), caffeic acid ethyl ester], in assay [2] (0.05 mg/ml), the “Amount of NGF Produced” value amounted to 1058.1%.
As for `CCOC(=O)/C=C/c1ccc(O)c(O)c1` [Caffeic acid ethyl ester, caffeic acid ethyl ester], the “Amount of NGF Produced” value in assay [2] (62.5 μg/ml) was found to be 1279.1%.
On to `COC(=O)/C=C/c1ccc(O)c(O)c1` [Caffeic acid methyl ester, caffeic acid methyl ester], for which the “Amount of NGF Produced” value in assay [2] (62.5 μg/ml) was 824.4%.
`O=C(/C=C/c1ccc(O)c(O)c1)O[C@@H]1C[C@](O)(C(=O)O)C[C@@H](O)[C@H]1O` [Chlorogenic Acid, chlorogenic acid]: the “Amount of HGF Produced” value was 105% in assay [1] (1 μM); 122% in assay [1] (10 μM); 302% in assay [1] (100 μM); 479% in assay [1] (500 μM); 624% in assay [1] (1000 μM). In addition, the “enhancing activity for HGF production” value in assay [1] (result in words, no value given) is reported as “enhancing activity for HGF production existed”.
Turning to `COc1cc(O)c(CC=C(C)C)c2c1C(=O)CC(c1ccc(O)cc1)O2` (stereo not drawn) [Isoxanthohumol, isoxanthohumol], the “Amount of NGF Produced” value in assay [2] (50 μM) stood at 110.7%; in assay [2] (100 μM), 121.4%; in assay [2] (200 μM), 198.0%.
As for `O=C1C([C@@H]2O[C@H](CO)[C@@H](O)[C@H](O)[C@H]2O)=C(O)/C(=C(O)/C=C/c2ccc(O)cc2)C(=O)C1(O)[C@@H]1O[C@H](CO)[C@@H](O)[C@H](O)[C@H]1O` (stereo partly drawn) [Safflomin A, safflomin A], the “Amount of NGF Produced” value in assay [2] (2.5 mg/ml) is listed as 130.7%. The “enhancing activity for NGF production” value in assay [2] is on record as “has the enhancing activity for NGF production”.
Turning to `CC(C)=CCC/C(C)=C/Cc1c(O)ccc(C(=O)/C=C/c2ccc(O)cc2)c1O` [Xanthoangelol, xanthoangelol], the results for the “Amount of NGF Produced” value in assay [2] (25 μM), in assay [2] (50 μM) and in assay [2] (100 μM) were 126.1%, 202.6% and 265.7%, respectively.
For `COc1cc(O)c(CC=C(C)C)c(O)c1C(=O)/C=C/c1ccc(O)cc1` [Xanthohumol, xanthohumol], the “Amount of NGF Produced” value was found to be 235.5% in assay [2] (12.5 μM), 387.9% in assay [2] (25 μM) and 443.0% in assay [2] (50 μM). Moreover, the “enhancing activity for NGF production” value in assay [2] is “has the activity”.
